Laboratory results from patent US7575882B2, “Compositions and methods for identifying modulators of TRPV2” (Janssen Pharmaceutica N. V., priority 2005, dated 2009).

Experiments:
[1] = target: T1, human TRPV1 (Homo sapiens, UniProt Q8NER1); test: FLIPR assay in HEK293 cells expressing human TRPV1; type: cell-based; settings: Δ^9-THC 240 μM, cannabinol 600 μM, others 120 μM
T1 construct: expressed in transfected cells; host or cells: HEK293
Procedure: A selected number of cannabinoids were also tested against HEK293 cells expressing human TRPV1 and canine TRPM8 in the FLIRP assay.

[2] = target: T2, rat and human TRPV2 chimera RRH (Rattus norvegicus, UniProt Q9WUD2, A714S/D654T/DEL680-680/E685A/G695P/H651S/H683Q/K690T/K717Q/L688M/N655D/R687V/R694K/S723C/T698S); test: Calcium mobilization in HEK293 cells expressing TRPV2 chimera RRH; type: cell-based; settings: expressed separately in HEK cells
T2 construct: expressed in transfected cells; host or cells: HEK293, transient, pCI-neo
T2 sequence (Q9WUD2 with tags, fused parts or gaps H651S/D654T/N655D/DEL680-680/H683Q/E685A/R687V/L688M/K690T/R694K/G695P/T698S/A714S/K717Q/S723C): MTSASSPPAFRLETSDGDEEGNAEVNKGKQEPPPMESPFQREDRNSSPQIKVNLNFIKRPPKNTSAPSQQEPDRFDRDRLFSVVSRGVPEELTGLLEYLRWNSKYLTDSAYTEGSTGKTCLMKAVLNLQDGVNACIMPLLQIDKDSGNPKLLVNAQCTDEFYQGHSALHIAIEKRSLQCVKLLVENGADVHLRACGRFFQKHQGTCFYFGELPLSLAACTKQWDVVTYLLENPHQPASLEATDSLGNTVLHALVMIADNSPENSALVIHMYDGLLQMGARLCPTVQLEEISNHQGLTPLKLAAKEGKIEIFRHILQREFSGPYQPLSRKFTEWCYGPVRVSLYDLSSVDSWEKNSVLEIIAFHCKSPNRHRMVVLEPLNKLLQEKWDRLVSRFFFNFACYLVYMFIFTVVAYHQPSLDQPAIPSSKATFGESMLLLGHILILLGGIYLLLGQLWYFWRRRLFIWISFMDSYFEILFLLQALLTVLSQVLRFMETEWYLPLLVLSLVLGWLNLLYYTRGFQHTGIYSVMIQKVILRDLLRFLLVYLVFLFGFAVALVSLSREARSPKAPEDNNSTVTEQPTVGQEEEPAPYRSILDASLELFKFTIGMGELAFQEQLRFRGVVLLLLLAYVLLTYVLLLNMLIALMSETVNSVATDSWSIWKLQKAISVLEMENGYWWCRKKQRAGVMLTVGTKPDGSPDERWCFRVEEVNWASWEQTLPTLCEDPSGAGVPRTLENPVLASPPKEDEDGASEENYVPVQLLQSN
Procedure: (§1) The deletion mutant constructs were then transfected into HEK293 cells using Fugene 6 reagent (Roche) as per the manufacturer's instructions. At 24 hours post-transfection, the cells were harvested and replated in fresh DMEM medium supplemented with 10% fetal bovine serum, 100 units/ml penicillin, and 100 μg/ml streptomycin. The cells were distributed onto poly-D-Lysine coated 96-or 384-well plates at a density of approximately 40,000 and 10,000 cells per well, respectively. At approximately 48 hours post-transfection, the medium was removed from the assay plate and replaced with Calcium 3 Dye Buffer (Molecular Devices) using the protocol available from the manufacturer. Calcium mobilization was triggered using Δ^9-THC or 2-APB or elevated temperature buffer and measured using either FLIPR or FLEX STATION instruments.
(§2) Based on the predicted topology and primary sequence features of TRPV2, TRPV2 are divided into 3 major domains: 1) the amino-terminal intracellular domain; 2) the transmembrane domain; and 3) the carboxyl-terminal intracellular domain. For a chimera, each domain can be of rat (R) or human (H) origin. Three rat and human TRPV2 chimera were constructed and tested herein. RRH (SEQ ID NO:15) was a chimera comprising rat 1-392 aa, rat 393-646 aa, and human 647-764 aa. RHR (SEQ ID NO:16) was a chimera comprising rat 1-392, human 391-646, and rat 647-761. […]

[3] = target: T3, co-expressed TRPV2 chimeras RRH and HRR (Rattus norvegicus, UniProt Q9WUD2); test: Calcium mobilization in HEK293 cells co-expressing TRPV2 chimeras RRH and HRR; type: cell-based, rat/human; settings: co-expression in HEK cells
T3 construct: expressed in transfected cells; host or cells: HEK293, transient co-expression, pCI-neo
T3 sequence (Q9WUD2 with tags, fused parts or gaps H651S/D654T/N655D/DEL680-680/H683Q/E685A/R687V/L688M/K690T/R694K/G695P/T698S/A714S/K717Q/S723C): T2 sequence (Q9WUD2 with tags, fused parts or gaps H651S/D654T/N655D/DEL680-680/H683Q/E685A/R687V/L688M/K690T/R694K/G695P/T698S/A714S/K717Q/S723C)
T3 sequence (Q9WUD2 with tags, fused parts or gaps P38Q/R41G/N45K/S46F/S47A/K51R/DEL56-59/P60Y/P61R/N63G/S65G/DEL67-67/Q70P/E71D/D73N/S82N/V83A/E91D/T93A/L96P/R100S/W101K/N102T/A110E/Q129K/M137L/K144R/K150Q/L151P/E160D/F161Y/Q163R/D189N/L192A/H202G/T227S/E240Q/L245Q/A257S/P261A/S264I/I268T/H269S/M277A/E289D/S291R/H293L/G295D/DEL322-322/Y323L/Q324S/P325H/S346A/W351C/K353E/N368H/E384A/R388L/V390I/S391P/R392K): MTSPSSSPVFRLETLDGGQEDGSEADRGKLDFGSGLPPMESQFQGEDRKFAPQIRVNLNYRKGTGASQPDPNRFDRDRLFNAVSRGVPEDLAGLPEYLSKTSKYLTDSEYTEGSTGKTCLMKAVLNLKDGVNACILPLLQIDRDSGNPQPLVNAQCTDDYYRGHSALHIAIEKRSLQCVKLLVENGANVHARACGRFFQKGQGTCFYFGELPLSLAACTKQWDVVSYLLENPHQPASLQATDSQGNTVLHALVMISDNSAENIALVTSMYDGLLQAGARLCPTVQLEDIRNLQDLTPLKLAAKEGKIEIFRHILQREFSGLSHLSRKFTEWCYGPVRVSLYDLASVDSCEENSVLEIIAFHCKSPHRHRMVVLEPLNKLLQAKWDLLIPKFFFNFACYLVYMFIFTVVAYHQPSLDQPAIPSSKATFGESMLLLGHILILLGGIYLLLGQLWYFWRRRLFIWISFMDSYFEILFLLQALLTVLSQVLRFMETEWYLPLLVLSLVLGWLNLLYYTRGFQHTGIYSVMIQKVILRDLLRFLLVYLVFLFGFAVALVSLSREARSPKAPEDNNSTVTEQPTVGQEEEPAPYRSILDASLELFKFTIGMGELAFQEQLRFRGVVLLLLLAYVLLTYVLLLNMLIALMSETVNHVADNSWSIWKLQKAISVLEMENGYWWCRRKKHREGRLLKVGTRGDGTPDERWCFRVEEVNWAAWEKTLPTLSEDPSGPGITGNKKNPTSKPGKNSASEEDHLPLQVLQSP
Procedure: as §1, §2

T1 sequence (Q8NER1 whole entry): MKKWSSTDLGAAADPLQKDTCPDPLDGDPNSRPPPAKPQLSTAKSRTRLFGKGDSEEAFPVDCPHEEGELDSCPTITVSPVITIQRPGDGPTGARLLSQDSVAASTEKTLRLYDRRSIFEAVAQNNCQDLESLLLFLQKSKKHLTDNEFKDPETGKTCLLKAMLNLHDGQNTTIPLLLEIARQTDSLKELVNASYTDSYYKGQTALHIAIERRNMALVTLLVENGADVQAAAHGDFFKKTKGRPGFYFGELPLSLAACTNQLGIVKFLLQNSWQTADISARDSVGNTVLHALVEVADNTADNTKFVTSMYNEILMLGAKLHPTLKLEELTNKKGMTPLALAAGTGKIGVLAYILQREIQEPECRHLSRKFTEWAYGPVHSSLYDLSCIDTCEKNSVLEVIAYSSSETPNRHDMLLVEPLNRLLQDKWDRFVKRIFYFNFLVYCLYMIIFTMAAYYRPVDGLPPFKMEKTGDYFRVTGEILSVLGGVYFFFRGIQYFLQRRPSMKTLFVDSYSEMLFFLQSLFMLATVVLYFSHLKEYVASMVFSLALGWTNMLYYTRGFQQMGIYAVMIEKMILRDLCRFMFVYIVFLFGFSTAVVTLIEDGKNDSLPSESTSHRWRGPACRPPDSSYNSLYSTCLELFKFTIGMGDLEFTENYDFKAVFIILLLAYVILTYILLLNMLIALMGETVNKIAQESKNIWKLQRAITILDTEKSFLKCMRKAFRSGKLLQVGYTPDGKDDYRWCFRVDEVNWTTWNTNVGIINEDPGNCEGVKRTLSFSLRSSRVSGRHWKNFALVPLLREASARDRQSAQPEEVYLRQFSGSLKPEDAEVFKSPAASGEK

**Q.** Which “activation of TRPV1” value [1] does the source give for Delta-9-tetrahydrocannabinol [Δ^9-THC] here?
**A.** Its value is “no significant activation”.

**Q.** What about the “response of chimera RRH to the compound” value [2] of the same substance?
**A.** The value was “poorly”.

**Q.** What about the “response of cells co-expressing both chimeras to the compound” value [3] of the same substance?
**A.** Its value is “fully responsive”.
